Measured values taken from patent US20130345199A1, “1-[M-CARBOXAMIDO(HETERO)ARYL-METHYL]-PIPERIDINE-4-CARBOXAMIDE DERIVATIVES” (Actelion Pharmaceuticals Ltd., priority 2012, published 2013).

biological target: T1, CXCR7 (Homo sapiens, UniProt P25106); test: PathHunter CHO-K1 CXCR7 b-arrestin assay (agonistic activity); type: cell-based; settings: PathHunter CHO-K1 CXCR7 b-arrestin cell line, 90 minutes at 37° C.
T1 construct: host or cells: CHO-K1 (PathHunter CXCR7 b-arrestin cell line, stably transfected)
T1 sequence (P25106 whole entry): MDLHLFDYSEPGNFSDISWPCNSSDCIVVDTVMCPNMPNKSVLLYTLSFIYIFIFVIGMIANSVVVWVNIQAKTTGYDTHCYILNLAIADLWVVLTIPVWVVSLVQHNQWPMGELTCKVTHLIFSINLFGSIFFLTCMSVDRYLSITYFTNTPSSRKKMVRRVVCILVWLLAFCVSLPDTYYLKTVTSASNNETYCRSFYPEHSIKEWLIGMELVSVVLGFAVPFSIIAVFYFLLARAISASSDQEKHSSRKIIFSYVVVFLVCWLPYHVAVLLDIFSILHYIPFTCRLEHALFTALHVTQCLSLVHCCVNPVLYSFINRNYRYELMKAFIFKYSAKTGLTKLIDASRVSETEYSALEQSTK
Method: The […] receptor and CXCR7 agonistic activities of the compounds of formula (I) are determined in accordance with the following experimental method.
The assay is using the PathHunter™ CHO-K1 CXCR7 b-arrestin cell line from DiscoverX. The system is based on the Enzyme Fragment Complementation Technology. Two complementing fragments of the b-galactosidase enzyme are expressed within stably transfected cells. The larger portion of b-gal, termed EA for Enzyme Acceptor, is fused to the C-terminus of b-arrestin 2. The smaller fragment, termed ProLink™ tag, is fused to CXCR7 at the C-terminus. Upon activation, b-arrestin is recruited which forces the interaction of ProLink and EA, allowing complementation of the two fragments of b-gal and the formation of a functional enzyme which is capable of hydrolysing the substrate and generating a chemiluminescent signal.
CHO-K1 CXCR7 b-arrestin cells are detached from culture dishes with a cell dissociation buffer (Invitrogen, #13151-014) and collected in growing medium (F12HAMS 90% (v/v)/FCS 10% (v/v), Penicilin/streptomycin 1% (v/v)). 5000 cells per well (in 20 μl) are seeded in a 384 well plate (white-walled, clear bottom; BD Falcon #353274). The plate is incubated at 37° C./5% CO2 for 24 hours. Medium is then replaced by […] (Invitrogen #31985) for 3 to 4 hours. Test compounds are dissolved at 10 mM in DMSO and serially diluted in DMSO to 200× of the final concentration for dose response curves. Compounds are then diluted 1:33.3 in HBSS1X. 5 μl/well of HBSS1X/20 mM HEPES/0.2% BSA are added to the assay plate followed by addition of 5 μl/well of diluted compounds. CXCL12 (Peprotech #300-28A) may be used as a reference agonist. The plate is incubated for 90 minutes at 37° C. 12 μl of detection reagent (Path Hunter Detection Kit, DiscoveRx, #93-0001) is transferred to the assay plate and to the plate is incubated for 1 hour at room temperature. Luminescent signal is read in a microplate reader (FLUOstar Optima, bmg). The calculated EC50 values may fluctuate depending on the daily cellular assay performance. Fluctuations of this kind are known to those skilled in the art.

| Compound | EC50 |
| --- | --- |
| O=C(Nc1cccc(CN2CCC(C(=O)NCc3cccc(Cl)c3)CC2)c1)c1ccc(Cl)cc1 [Example 2.027] | 442 nM |
| CCC(C)(C)NC(=O)C1CCCN(Cc2cccc(NC(=O)c3cccc(C(F)(F)F)n3)c2)CC1 (racemic) [Example 2.088] | 19 nM |
| CN(C)C(=O)C1CCN(Cc2cccc(NC(=O)c3cccs3)c2)CC1 [Example 2.073] | 155 nM |
| Cc1cncc(C(=O)Nc2cccc(CN3CCC(C(=O)NC4CCCC4)CC3)c2)c1 [Example 2.042] | 5 nM |
| Cc1cncc(C(=O)Nc2cccc(CN3CCCC(C(=O)NCC4CC4)CC3)c2)c1 (racemic) [Example 2.084] | 304 nM |
| CC(C)(C)[C@@H](CO)NC(=O)C1CCN(Cc2cccc(NC(=O)c3cccc(C(F)(F)F)n3)c2)CC1 [Example 2.067] | 406 nM |
| CN(C(=O)C1CCN(Cc2cccc(NC(=O)c3cccs3)c2)CC1)C1CCCCC1 [Example 2.077] | 87 nM |
| O=C(Nc1cccc(CN2CCC(C(=O)NCC3CCCC3)CC2)c1)c1ccc(Cl)cc1 [Example 2.010] | 4 nM |
| CCN(CC)C(=O)C1CCN(Cc2cccc(NC(=O)c3cccs3)c2)CC1 [Example 2.074] | 70 nM |
| Cc1cncc(C(=O)Nc2cccc(CN3CCC(C(=O)N4CC[C@H](F)C4)CC3)c2)c1 [Example 2.053] | 195 nM |
| CC(C)(C)NC(=O)C1CCN(Cc2cc(NC(=O)c3cccc(C(F)(F)F)n3)ccc2F)CC1 [Example 4.017, 6-Trifluoromethyl-pyridine-2-carboxylic acid [3-(4-tert-butylcarbamoyl-piperidin-1-ylmethyl)-4-fluoro-phenyl]-amide] | 2 nM |
| Cc1cncc(C(=O)Nc2cccc(CN3CCC(C(=O)NC4CCC(F)(F)CC4)CC3)c2)c1 [Example 2.044] | 27 nM |
| Cc1cncc(C(=O)Nc2cccc(CN3CCC(C(=O)NC4(C#N)CC4)CC3)c2)c1 [Example 2.045] | 402 nM |
| O=C(Nc1cccc(CN2CCC(C(=O)NCC3CCCCC3)CC2)c1)c1ccc(Cl)cc1 [Example 2.015] | 46 nM |
| CC1(C(=O)NC2CCCCC2)CCN(Cc2cccc(NC(=O)c3cccc(C(F)(F)F)n3)c2)CC1 [Example 4.010, 6-Trifluoromethyl-pyridine-2-carboxylic acid [3-(4-cyclohexylcarbamoyl-4-methyl-piperidin-1-ylmethyl)-phenyl]-amide] | 57 nM |
| Cc1cncc(C(=O)Nc2cccc(CN3CCC(F)(C(=O)NC4CCCCC4)CC3)c2)c1 [Example 4.001, N-[3-(4-Cyclohexylcarbamoyl-4-fluoro-piperidin-1-ylmethyl)-phenyl]-5-methyl-nicotinamide] | 46 nM |
| O=C(Nc1cccc(CN2CCC(C(=O)NC3CCCCC3)CC2)n1)c1ccc(F)cc1 [Example 3.003, 1-[6-(4-Fluoro-benzoylamino)-pyridin-2-ylmethyl]-piperidine-4-carboxylic acid cyclohexylamide] | 167 nM |
| O=C(Nc1cccc(CN2CCC(C(=O)NCc3ccncc3)CC2)c1)c1ccc(Cl)cc1 [Example 2.021] | 218 nM |
| 5-Chloro-N-[4-chloro-3-(4-cyclopentylcarbamoyl-piperidin-1-ylmethyl)-phenyl]-nicotinamide [Example 1.227] | 0.6 nM |
| CC1CCC(NC(=O)C2CCN(Cc3cccc(NC(=O)c4cccc(C(F)(F)F)n4)c3)CC2)CC1 (stereo not shown) [Example 2.083] | 3 nM |
| COCCNC(=O)C1CCN(Cc2cccc(NC(=O)c3ccc(Cl)cc3)c2)CC1 [Example 2.005] | 5 nM |
| O=C(Nc1cccc(CN2CCC(C(=O)NC3CC3)CC2)c1)c1ccc(Cl)cc1 [Example 2.006] | 2 nM |
| O=C(Nc1cccc(CN2CCC(C(=O)NC3CCC(O)CC3)CC2)c1)c1ccc(Cl)cc1 (stereo not shown) [Example 2.011] | 241 nM |
| O=C(Nc1cccc(CN2CCC(C(=O)NC3CCc4ccccc43)CC2)c1)c1ccc(Cl)cc1 (racemic) [Example 2.020] | 21 nM |
| O=C(Nc1cccc(CN2CCCC(C(=O)NCC3CC3)CC2)c1)c1cccc(C(F)(F)F)n1 (racemic) [Example 2.089] | 36 nM |

| Compound | EC50 |
| --- | --- |
| O=C(Nc1cncc(CN2CCC(C(=O)NC3CCCCC3)CC2)c1)c1ccc(Cl)cc1 [Example 3.004, 1-[5-(4-Chloro-benzoylamino)-pyridin-3-ylmethyl]-piperidine-4-carboxylic acid cyclohexylamide] | 36 nM |
| O=C(Nc1cccc(CN2CCC(C(=O)NC3CCC(F)(F)CC3)CC2)c1)c1ccc(Cl)cc1 [Example 2.014] | 2 nM |
| Cc1cncc(C(=O)Nc2cccc(CN3CCC(C(=O)NC4CCCCC4)C3)c2)c1 (stereo not shown) [Example 2.063] | 92 nM |
| Cc1cncc(C(=O)Nc2cccc(CN3CCC(C(=O)NC4CCCC4)C3)c2)c1 (stereo not shown) [Example 2.062] | 28 nM |
| Cc1cncc(C(=O)Nc2cccc(CN3CCC(C(=O)N4CCCC4C)CC3)c2)c1 (racemic) [Example 2.050] | 26 nM |
| O=C(Nc1cccc(CN2CCC(C(=O)NCc3ccccc3Cl)CC2)c1)c1ccc(Cl)cc1 [Example 2.025] | 17 nM |
| Cc1cncc(C(=O)Nc2ccc(F)c(CN3CCC(C(=O)NC4CCCCC4)CC3)c2)c1 [Example 4.018, N-[3-(4-Cyclohexylcarbamoyl-piperidin-1-ylmethyl)-4-fluoro-phenyl]-5-methyl-nicotinamide] | 11 nM |
| CCCCCCNC(=O)C1CCN(Cc2cccc(NC(=O)c3cccc(C(F)(F)F)n3)c2)CC1 [Example 2.078] | 257 nM |
| O=C(Nc1cccc(CN2CCC(C(=O)NC3CCCC3)CC2)c1)c1ccc(F)c[n+]1[O-] [Example 4.006, 5-Fluoro-1-oxy-pyridine-2-carboxylic acid [3-(4-cyclopentylcarbamoyl-piperidin-1-ylmethyl)-phenyl]-amide] | 1 nM |
| CCNC(=O)C1CCN(Cc2cccc(NC(=O)c3cccc(C(F)(F)F)n3)c2)CC1 [Example 2.069] | 4 nM |
| CC(NC(=O)C1CCN(Cc2cccc(NC(=O)c3ccc(Cl)cc3)c2)CC1)c1cccc2ccccc12 (racemic) [Example 2.018] | 349 nM |
| CC(C)(C)NC(=O)C1CCN(Cc2csc(NC(=O)Cc3ccccc3Cl)c2)CC1 [Example 3.010, 1-{5-[2-(2-Chloro-phenyl)-acetylamino]-thiophen-3-ylmethyl}-piperidine-4-carboxylic acid tert-butylamide] | 41 nM |
| Cc1cncc(C(=O)Nc2cccc(CN3CCC(F)(C(=O)NC(C)(C)C)CC3)c2)c1 [Example 4.002, N-[3-(4-tert-Butylcarbamoyl-4-fluoro-piperidin-1-ylmethyl)-phenyl]-5-methyl-nicotinamide] | 16 nM |
| CC(C)(C)NC(=O)C1CCN(Cc2cccc(NC(=O)c3ccc(Cl)cc3)c2)CC1 [Example 2.004] | 1 nM |
| Cc1cncc(C(=O)Nc2cccc(CN3CCC(C(=O)NC(C)C)CC3)c2)c1 [Example 2.038] | 12 nM |
| CCC(C)NC(=O)C1CCCN(Cc2cccc(NC(=O)c3cccc(C(F)(F)F)n3)c2)CC1 (racemic) [Example 2.087] | 6 nM |
| N-[3-(4-Cyclopropylcarbamoyl-piperidin-1-ylmethyl)-phenyl]-6-methyl-nicotinamide [Example 1.202] | 145 nM |
| O=C(Nc1ccnc(CN2CCC(C(=O)NC3CCCCC3)CC2)c1)c1ccc(F)cc1 [Example 3.006, 1-[4-(4-Fluoro-benzoylamino)-pyridin-2-ylmethyl]-piperidine-4-carboxylic acid cyclohexylamide] | 56 nM |
| Cc1cncc(C(=O)Nc2cccc(CN3CCC(C(=O)N(C)C)CC3)c2)c1 [Example 2.055] | 60 nM |
| O=C(Nc1cccc(CN2CCC(C(=O)NC3CCCCC3)CC2)c1)c1cccnc1 [Example 1.003, N-[3-(4-Cyclohexylcarbamoyl-piperidin-1-ylmethyl)-phenyl]-nicotinamide] | 23 nM |
| O=C(Nc1cc(CN2CCC(C(=O)NC3CCCCC3)CC2)ccn1)c1ccc(F)cc1 [Example 3.001, 1-[2-(4-Fluoro-benzoylamino)-pyridin-4-ylmethyl]-piperidine-4-carboxylic acid cyclohexylamide] | 24 nM |
| CC(C)(C)NC(=O)C1CCN(Cc2csc(NC(=O)c3ccc(F)cc3)c2)CC1 [Example 3.008, 1-[5-(4-Fluoro-benzoylamino)-thiophen-3-ylmethyl]-piperidine-4-carboxylic acid tert-butylamide] | 3 nM |
| CCCNC(=O)C1CCN(Cc2cccc(NC(=O)c3cccc(C(F)(F)F)n3)c2)CC1 [Example 2.094] | 1 nM |
| CC(C)(C)NC(=O)C1(C)CCN(Cc2cccc(NC(=O)c3cccc(C(F)(F)F)n3)c2)CC1 [Example 4.011, 6-Trifluoromethyl-pyridine-2-carboxylic acid [3-(4-tert-butylcarbamoyl-4-methyl-piperidin-1-ylmethyl)-phenyl]-amide] | 13 nM |
